Experimental data as given in the NIST ThermoML archive (doi:10.1016/j.jct.2009.08.009).
± gives the expanded uncertainty stated by the source.

Assay: xn = mol fraction of the nth substance listed
Settings: 101 kPa, Liquid; for viscosity: Capillary tube (Ostwald / Ubbelohde) method; for speed of sound: Sing-around technique in a fixed-path interferometer; for mass density: Vibrating tube method

CCOCCOCCO [3,6-dioxa-1-octanol] + CCCCCCCCCCO
Settings | mass density [kg/m3] | speed of sound [m/s] | viscosity [mPa·s]
293.15 K, x1 = 0.0607 | 836.419 ± 0.13 | 1394.1 ± 0.9 | 11.4 ± 0.06
293.15 K, x1 = 0.109 | 841.997 ± 0.13 | 1392.3 ± 0.9 | 10.28 ± 0.055
293.15 K, x1 = 0.1561 | 847.628 ± 0.13 | 1390.6 ± 0.9 | 9.367 ± 0.05
293.15 K, x1 = 0.2105 | 854.439 ± 0.13 | 1388.9 ± 0.9 | 8.743 ± 0.047
293.15 K, x1 = 0.2599 | 862.044 ± 0.12 | 1387.4 ± 0.9 | 7.761 ± 0.043
293.15 K, x1 = 0.3089 | 867.859 ± 0.12 | 1386.6 ± 0.9 | 7.383 ± 0.041
293.15 K, x1 = 0.3533 | 874.329 ± 0.12 | 1385.8 ± 0.9 | 6.336 ± 0.036
293.15 K, x1 = 0.4923 | 896.636 ± 0.12 | 1385.3 ± 0.9 | 5.731 ± 0.033
293.15 K, x1 = 0.5986 | 916.267 ± 0.11 | 1387.2 ± 0.9 | 5.141 ± 0.031
293.15 K, x1 = 0.7153 | 940.786 ± 0.11 | 1392.6 ± 0.9 | 4.525 ± 0.027
293.15 K, x1 = 0.7918 | 959.008 ± 0.11 | 1398.6 ± 0.9 | 4.186 ± 0.025
293.15 K, x1 = 0.901 | 988.518 ± 0.1 | 1412.6 ± 0.9 | 3.899 ± 0.024
293.15 K, x1 = 1 | – | – | 3.626 ± 0.022
298.15 K, x1 = 0.0607 | 832.969 ± 0.13 | 1377 ± 0.9 | 9.658 ± 0.052
298.15 K, x1 = 0.109 | 838.521 ± 0.13 | 1375.3 ± 0.9 | 8.774 ± 0.048
298.15 K, x1 = 0.1561 | 844.112 ± 0.13 | 1373.6 ± 0.9 | 8.059 ± 0.044
298.15 K, x1 = 0.2105 | 850.88 ± 0.13 | 1371.8 ± 0.9 | 7.574 ± 0.042
298.15 K, x1 = 0.2599 | 858.441 ± 0.13 | 1370.5 ± 0.9 | 6.868 ± 0.039
298.15 K, x1 = 0.3089 | 864.217 ± 0.12 | 1369.6 ± 0.9 | 6.353 ± 0.036
298.15 K, x1 = 0.3533 | 870.65 ± 0.12 | 1368.9 ± 0.9 | 6.008 ± 0.035
298.15 K, x1 = 0.4923 | 892.825 ± 0.12 | 1368.4 ± 0.9 | 5.027 ± 0.03
298.15 K, x1 = 0.5986 | 912.348 ± 0.11 | 1370.3 ± 0.9 | 4.479 ± 0.027
298.15 K, x1 = 0.7153 | 936.739 ± 0.11 | 1375.7 ± 0.9 | 4.005 ± 0.024
298.15 K, x1 = 0.7918 | 954.872 ± 0.11 | 1381.7 ± 0.9 | 3.729 ± 0.023
298.15 K, x1 = 0.901 | 984.244 ± 0.1 | 1395.6 ± 0.9 | 3.449 ± 0.021
298.15 K, x1 = 1 | – | – | 3.278 ± 0.02
303.15 K, x1 = 0.0607 | 829.51 ± 0.13 | 1360.1 ± 0.8 | 8.114 ± 0.045
303.15 K, x1 = 0.109 | 835.031 ± 0.13 | 1358.4 ± 0.8 | 7.312 ± 0.041
303.15 K, x1 = 0.1561 | 840.589 ± 0.13 | 1356.8 ± 0.8 | 6.739 ± 0.038
303.15 K, x1 = 0.2105 | 847.315 ± 0.13 | 1355.1 ± 0.8 | 6.387 ± 0.037
303.15 K, x1 = 0.2599 | 854.826 ± 0.13 | 1353.7 ± 0.8 | 5.858 ± 0.034
303.15 K, x1 = 0.3089 | 860.567 ± 0.12 | 1352.8 ± 0.8 | 5.366 ± 0.032
303.15 K, x1 = 0.3533 | 866.962 ± 0.12 | 1352.1 ± 0.8 | 5.083 ± 0.03
303.15 K, x1 = 0.4923 | 889.005 ± 0.12 | 1351.7 ± 0.8 | 4.338 ± 0.026
303.15 K, x1 = 0.5986 | 908.42 ± 0.12 | 1353.7 ± 0.8 | 3.859 ± 0.023
303.15 K, x1 = 0.7153 | 932.679 ± 0.11 | 1358.9 ± 0.8 | 3.458 ± 0.021
303.15 K, x1 = 0.7918 | 950.728 ± 0.11 | 1364.9 ± 0.9 | 3.235 ± 0.02
303.15 K, x1 = 0.901 | 979.965 ± 0.1 | 1378.8 ± 0.9 | 3.021 ± 0.019
303.15 K, x1 = 1 | – | – | 2.862 ± 0.018
308.15 K, x1 = 0.0607 | 826.037 ± 0.14 | 1343.3 ± 0.8 | 6.698 ± 0.038
308.15 K, x1 = 0.109 | 831.525 ± 0.13 | 1341.6 ± 0.8 | 6.116 ± 0.035
308.15 K, x1 = 0.1561 | 837.051 ± 0.13 | 1340.1 ± 0.8 | 5.838 ± 0.034
308.15 K, x1 = 0.2105 | 843.734 ± 0.13 | 1338.4 ± 0.8 | 5.38 ± 0.032
308.15 K, x1 = 0.2599 | 851.204 ± 0.13 | 1336.9 ± 0.8 | 4.826 ± 0.029
308.15 K, x1 = 0.3089 | 856.908 ± 0.13 | 1336.2 ± 0.8 | 4.528 ± 0.027
308.15 K, x1 = 0.3533 | 863.255 ± 0.13 | 1335.5 ± 0.8 | 4.319 ± 0.026
308.15 K, x1 = 0.4923 | 885.17 ± 0.12 | 1335.1 ± 0.8 | 3.697 ± 0.023
308.15 K, x1 = 0.5986 | 904.477 ± 0.12 | 1337 ± 0.8 | 3.346 ± 0.02
308.15 K, x1 = 0.7153 | 928.613 ± 0.11 | 1342.4 ± 0.8 | 2.978 ± 0.018
308.15 K, x1 = 0.7918 | 946.566 ± 0.11 | 1348.3 ± 0.8 | 2.817 ± 0.017
308.15 K, x1 = 0.901 | 975.664 ± 0.1 | 1362.1 ± 0.9 | 2.67 ± 0.017
308.15 K, x1 = 1 | – | – | 2.507 ± 0.016
